Data: article PMC12718374, “Structural basis and evolutionary pathways of glycerol-1-phosphate transport in marine bacteria” (Proceedings of the National Academy of Sciences of the …, 2025)

Key:
[1] = biological target: Phaeobacter sp. MED193 GpxB (MED193_19449) (Roseobacter sp. MED193, UniProt A3X5C8); test: Microscale thermophoresis (MST) binding affinity assay, purified recombinant GpxB; conditions: 22 °C, 20 mM HEPES pH 7.4, 100 mM NaCl, recombinant GpxB of Phaeobacter sp. MED193
Protocol: (§1) The binding affinity of the purified proteins to G1P and other structurally related chemicals was measured using a Monolith NT.115 (NanoTemper Technologies, Munich, Germany). Proteins (160 nM) were labeled in assay buffer (PBS containing 0.05% (v/v) Tween-20) using the Protein Labelling Kit RED-Tris-NTA (NanoTemper Technologies). For binding assays, the buffer was replaced by 20 mM HEPES pH 7.4, 100 mM NaCl, 0.05% (v/v) Tween-20. Each chemical was prepared by serial dilution in the same assay buffer and mixed with the same volume of labeled protein (at a final concentration of 80 nM). The mixture was then loaded onto Monolith™ NT.115 Series capillaries (NanoTemper Technologies, Germany) and thermophoresis was measured at 22 °C using 60% excitation power and medium MST power. Data were analyzed using MO. Affinity Analysis v2.3 software (NanoTemper Technologies).
(§2) The full-length codon optimized GpxB (MED193_19449) of Phaeobacter sp. MED193 (WP_009811375.1), and four GpxB homologs (Marinobacter sp. DSM11874, MBB6025290.1; S. pseudonitzschiae DSM26824, WP_037914517.1; Sulfitobacter sp. EE-36, WP_005852758.1; S. geojensis sp. EhN01, WP_064222091.1) were chemically synthesized by Beijing Tsingke Biotech Co., Ltd. (China), and subcloned into pET-22b (Novagen, America) with a C-terminal His-tag. An N-terminal signal peptide truncated [residues 1−22 predicted by SignalP 5.0 Server ([36])] […]

[2] = biological target: Phaeobacter sp. MED193 UgpB (MED193_07903) (Phaeobacter sp. MED193 (Roseobacter sp. MED193), UniProt Z9VP90JAR2); test: MST binding affinity assay, purified recombinant UgpB; conditions: 22 °C, 20 mM HEPES pH 7.4, 100 mM NaCl, recombinant UgpB of Phaeobacter sp. MED193
Protocol: as §1, §2

[3] = biological target: GpxB^DSM11874 (GpxB homolog from Marinobacter sp. DSM11874) (Marinobacter sp. DSM 11874, UniProt Z9YUV0DEE1); test: MST binding affinity assay, purified GpxB^DSM11874; conditions: 22 °C, GpxB^DSM11874 of Marinobacter sp. DSM11874
Protocol: as §1, §2

[4] = biological target: GpxB from Sulfitobacter pseudonitzschiae DSM26824; test: MST binding affinity assay, purified GpxB from Sulfitobacter pseudonitzschiae DSM26824; conditions: GpxB of Sulfitobacter pseudonitzschiae DSM26824
Protocol: as §1, §2

[5] = biological target: GpxB from Sulfitobacter sp. EE-36; test: MST binding affinity assay, purified GpxB from Sulfitobacter sp. EE-36; conditions: GpxB of Sulfitobacter sp. EE-36
Protocol: as §1, §2

[6] = biological target: GpxB from Sulfitobacter geojensis EhN01; test: MST binding affinity assay, purified GpxB from Sulfitobacter geojensis EhN01; conditions: GpxB of Sulfitobacter geojensis EhN01
Protocol: as §1, §2

[7] = tested on: GpxB^DSM11874 alanine mutants (Tyr138, His199, Thr247, Arg223); test: MST binding affinity assay of site-directed alanine mutants of GpxB^DSM11874; set-up: species or system Marinobacter sp. DSM11874; conditions: alanine mutants of Tyr138, His199, Thr247, Arg223 versus wild-type GpxB^DSM11874
Protocol: as §1, §2

[8] = tested on: Phaeobacter sp. MED193; test: Growth on substrate as the sole C source, wild type; assay type: cell-based; conditions: defined artificial seawater medium, 5 mM substrate
Protocol: (§3) Phaeobacter sp. MED193 and its mutant strains were routinely maintained on 1.5% (w/v) Difco marine broth 2216 agar with antibiotics as appropriate. To test the growth of Phaeobacter sp. MED193 on G1P/G3P, cells were first cultivated in 5 mL marine broth medium overnight at 30 °C with shaking at 150 rpm. A 1% (v/v) inoculum was then transferred to defined artificial seawater medium supplemented with 50 µM phosphate ([6]). After 24 h growth, 12.5 mL cultures were collected by centrifugation and inoculated into 100 mL artificial seawater medium. Subsequently, either G1P or G3P (purchased from Sigma-Aldrich, St. Louis, USA) was added to a final concentration of 5 mM as the sole C source. Cells (40 mL) were harvested after 48 h and used for proteomics.

[9] = tested on: Phaeobacter sp. MED193 ∆ugpB∆gpxB double mutant; test: Growth on substrate as the sole carbon source, ∆ugpB∆gpxB double mutant; assay type: cell-based; conditions: 5 mM substrate
Protocol: as §3
The gpxBugpB double mutant was generated using a conjugation protocol as described previously ([35]). First, two homologous regions of an upstream and a downstream fragment flanking the gpxB gene were cloned into suicide plasmid pK18mobsacB, together with a spectinomycin (Spec) resistance cassette which was inserted in between the upstream and downstream fragments. The resulting plasmid was then mobilized into Phaeobacter sp. MED193 using E. coli S17.1 lambda pir and transconjugants selected on marine broth MB agar containing Spec (200 µg mL^−1). […] The same protocol was repeated to generate the gpxBugpB double mutant in the gpxB single mutant background, except that a Gentamycin (Gm) resistant cassette was inserted in between the upstream and downstream fragments of ugpB into pK18mobsacB. All primers, plasmids, and bacterial strains used are listed in SI Appendix, Table S6.

Phaeobacter sp. MED193 UgpB (MED193_07903), sequence (Z9VP90JAR2 43-453 limits assumed): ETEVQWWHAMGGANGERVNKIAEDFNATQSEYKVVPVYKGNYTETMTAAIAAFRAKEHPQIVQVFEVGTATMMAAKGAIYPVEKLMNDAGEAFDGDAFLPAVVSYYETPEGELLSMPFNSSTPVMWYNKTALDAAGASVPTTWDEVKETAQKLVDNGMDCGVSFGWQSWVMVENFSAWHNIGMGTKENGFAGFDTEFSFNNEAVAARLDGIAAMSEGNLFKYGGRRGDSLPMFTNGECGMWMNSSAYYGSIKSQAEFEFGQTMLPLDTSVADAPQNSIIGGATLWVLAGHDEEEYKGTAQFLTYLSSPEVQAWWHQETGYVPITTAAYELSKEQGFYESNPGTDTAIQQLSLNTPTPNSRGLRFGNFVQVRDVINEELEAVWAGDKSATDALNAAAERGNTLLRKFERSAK
Phaeobacter sp. MED193 GpxB (MED193_19449), sequence (A3X5C8 1-326 limits assumed): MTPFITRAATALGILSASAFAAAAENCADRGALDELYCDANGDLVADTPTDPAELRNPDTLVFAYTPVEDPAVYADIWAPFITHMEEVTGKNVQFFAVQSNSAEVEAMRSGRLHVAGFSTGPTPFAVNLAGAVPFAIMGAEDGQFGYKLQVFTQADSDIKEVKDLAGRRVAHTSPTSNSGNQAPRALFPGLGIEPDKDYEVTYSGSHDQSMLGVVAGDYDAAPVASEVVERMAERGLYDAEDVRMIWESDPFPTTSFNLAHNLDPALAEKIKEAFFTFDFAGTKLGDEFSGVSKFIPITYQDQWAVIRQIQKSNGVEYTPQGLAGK
GpxB^DSM11874 (GpxB homolog from Marinobacter sp. DSM11874), sequence (Z9YUV0DEE1 21-315 limits assumed): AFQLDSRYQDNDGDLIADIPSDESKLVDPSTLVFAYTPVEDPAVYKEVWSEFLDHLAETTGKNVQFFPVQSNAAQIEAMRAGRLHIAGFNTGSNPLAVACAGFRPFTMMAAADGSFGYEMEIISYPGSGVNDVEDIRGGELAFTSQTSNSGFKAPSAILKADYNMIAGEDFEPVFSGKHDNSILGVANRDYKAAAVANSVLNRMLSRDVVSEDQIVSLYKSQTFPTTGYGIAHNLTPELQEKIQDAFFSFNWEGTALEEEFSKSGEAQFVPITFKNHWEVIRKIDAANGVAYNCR

SMILES | Kd [1] [nM] | Kd [2] [nM] | Kd [3] [nM] | binding affinity [4] | binding affinity [5] | binding affinity [6] | reduction in binding affinity of alanine mutants [7] | growth on the substance as the sole C source [8] | growth on the substance as the sole carbon source [9]
O=P(O)(O)OC[C@@H](O)CO [G1P, sn-glycerol-1-phosphate] | 2480 ± 140 | 2360 ± 350 | 1720 ± 280 | low-µM | low-µM | low-µM | 10- to 100 fold | grows | unable to grow
O=P(O)(O)OC[C@H](O)CO [G3P, sn-glycerol-3-phosphate] | 1020 ± 140 | 800 ± 260 | 1060 ± 150 | low-µM | low-µM | low-µM |  | grows | unable to grow
OCC(O)CO [glycerol] |  |  |  |  |  |  |  | grows | unaffected
